Results taken from patent publication US20040157892A1, “Pesticidal fluoroethyl pyrazoles” (CROMPTON CO./Cie, priority 2003, published 2004).

Columns and labels:
Assay type in all cases: in vivo
[1] = test system: Tetranychus urticae Motiles; assay: mite contact (MIC) bioassay; settings: 300 ppm, contact on bean leaf, evaluated five days later
Experimental: (§1) For each compound tested, a stock solution of 3000 ppm was prepared by diluting 0.008 gram of each compound into 2.67 mL of acetone and further diluting with water to make the final concentrations used for the various screens, as follows:
In the mite contact (MIC) bioassay, approximately 20 motile mites confined on a cowpea leaf were sprayed with a 300 ppm concentration and evaluated five days later.
(§2) Since only a single replicate was used for the DBM and SCR screens, confirmation of mortality in an additional evaluation with three larvae at the 100 ppm rate was required to substantiate the initial observation of activity.

Tetranychus urticae Eggs = assay: mite ovicide (MIOV) bioassay; settings: 100 ppm, contact on bean leaf, egg hatch evaluated nine days later
Experimental: as §1
In the mite ovicide (MIOV) bioassay, approximately 30 mite eggs on cowpea foliage were sprayed with a 100 ppm solution and egg hatch was evaluated nine days later.
as §2

[2] = test system: Plutella xylostella Larva; assay: diamondback moth (DBM) bioassay; settings: 100 ppm, residual on diet, evaluated five days later, confirmed with three larvae
Experimental: as §1
In the diamondback moth (DBM) bioassay, a single larva was exposed to a diet with a surface that had been coated with a 100 ppm solution, and evaluated five days later.
as §2

CCOC(=O)c1sc(-c2cnn(CCF)c2)nc1C(F)(F)F [Compound 7, Ethyl 2-[1-(2-fluoroethyl)-4-pyrazolyl]-4-trifluoromethyl-5-thiazolecarboxylate]
Pesticidal Activity MIC (control) [1]: 100%
Pesticidal Activity MIOV (control) (Tetranychus urticae Eggs): 100%

FCCn1cc(C#Cc2ccc(Cl)cc2)cn1 [Compound 9, 1-(2-fluoroethyl)-4-[(4-chlorophenyl)ethynyl]pyrazole]
Pesticidal Activity MIC (control) [1]: 100%
Pesticidal Activity MIOV (control) (Tetranychus urticae Eggs): 100%

Isopropyl 1-(2-fluoroethyl)-3(or 5)-nitro-1H-pyrazole-5 (or 3)-carboxylate [Compound 1]
Pesticidal Activity MIC (control) [1]: 100%
Pesticidal Activity DBM (control) [2]: 100%

FCCn1cc(C#Cc2cccnc2)cn1 [Compound 10]
Pesticidal Activity MIC (control) [1]: 100%
Pesticidal Activity MIOV (control) (Tetranychus urticae Eggs): 100%

FCCn1cc(-c2ccc(Cl)s2)cn1 [Compound 6, 1-(2-fluoroethyl)-4-(5-chloro-2-thienyl)pyrazole]
Pesticidal Activity MIC (control) [1]: 100%
Pesticidal Activity MIOV (control) (Tetranychus urticae Eggs): 100%
Pesticidal Activity DBM (control) [2]: 100%

FCCn1cc(-c2cccc(Cl)n2)cn1 [Compound 8, 1-(2-fluoroethyl)-4-(6-chloro-2-pyridyl)pyrazole]
Pesticidal Activity MIC (control) [1]: 100%
Pesticidal Activity MIOV (control) (Tetranychus urticae Eggs): 100%
